Results published in paper PMC5218480 (PLoS ONE, 2017).

Test system: MV-4-11 cells
Assay: Gene expression microarray analysis (Affymetrix PrimeView) and GSEA
Assay type: cell-based, human
Set-up: RFU PODN (11730768_x_at) / Fold change /veh PODN (11730768_x_at) / RFU LINC00158 (11744669_a_at) / Fold change /veh LINC00158 (11744669_a_at) / RFU DUSP10 (11751237_a_at) / Fold change /veh DUSP10 (11751237_a_at) / RFU ID3 (11757404_x_at) / Fold change /veh ID3 (11757404_x_at) / RFU PLEKHG5 (11737974_s_at) / Fold change /veh PLEKHG5 (11737974_s_at) / RFU LRRC4B (11730491_at) / Fold change /veh LRRC4B (11730491_at) / RFU GIMAP4 (11747438_a_at) / Fold change /veh GIMAP4 (11747438_a_at) / RFU KRT8 (11758183_x_at) / Fold change /veh KRT8 (11758183_x_at) / RFU CNN1 (11734310_a_at) / Fold change /veh CNN1 (11734310_a_at) / RFU VPS37D (11726825_at) / Fold change /veh VPS37D (11726825_at) / RFU C10orf10 (11716522_x_at) / Fold change /veh C10orf10 (11716522_x_at) / RFU KIR2DL2 /// KIR2DL4 /// KIR2DL5A /// KIR2DL5B /// KIR2DS1 /// KIR2DS2 /// KIR2DS3 /// KIR2DS4 /// KIR3DL3 /// KIR3DL3 /// KIR3DS1 (11738374_at) / Fold change /veh KIR2DL2 /// KIR2DL4 /// KIR2DL5A /// KIR2DL5B /// KIR2DS1 /// KIR2DS2 /// KIR2DS3 /// KIR2DS4 /// KIR3DL3 /// KIR3DL3 /// KIR3DS1 (11738374_at) / RFU C1QL1 (11718748_at) / Fold change /veh C1QL1 (11718748_at) / RFU TMPRSS4 (11747572_a_at) / Fold change /veh TMPRSS4 (11747572_a_at) / RFU HAMP (11756126_x_at) / Fold change /veh HAMP (11756126_x_at) / RFU RNFT2 (11725882_a_at) / Fold change /veh RNFT2 (11725882_a_at) / RFU NR4A2 (11747474_a_at) / Fold change /veh NR4A2 (11747474_a_at) / RFU ABCC12 (11746883_a_at) / Fold change /veh ABCC12 (11746883_a_at) / RFU TMEM136 (11760407_x_at) / Fold change /veh TMEM136 (11760407_x_at) / RFU CLDN22 /// WWC2 (11732394_at) / Fold change /veh CLDN22 /// WWC2 (11732394_at) / RFU HLA-DPB1 (11760878_x_at) / Fold change /veh HLA-DPB1 (11760878_x_at) / RFU SPINT1 (11716480_a_at) / Fold change /veh SPINT1 (11716480_a_at) / RFU GAP43 (11754022_s_at) / Fold change /veh GAP43 (11754022_s_at) / RFU A4GNT (11735810_at) / Fold change /veh A4GNT (11735810_at) / RFU PRB3 (11715151_x_at) / Fold change /veh PRB3 (11715151_x_at) / RFU TUBB4B (11761932_at) / Fold change /veh TUBB4B (11761932_at) / RFU CAPN14 (11732068_a_at) / Fold change /veh CAPN14 (11732068_a_at) / RFU TMCC2 (11721928_a_at) / Fold change /veh TMCC2 (11721928_a_at) / RFU IRGQ (11745062_a_at) / Fold change /veh IRGQ (11745062_a_at) / RFU FAM174B (11720279_a_at) / Fold change /veh FAM174B (11720279_a_at) / RFU TMPRSS4 (11748680_a_at) / Fold change /veh TMPRSS4 (11748680_a_at) / RFU FAM212B (11763350_a_at) / Fold change /veh FAM212B (11763350_a_at) / RFU PLEKHG5 (11743358_a_at) / Fold change /veh PLEKHG5 (11743358_a_at) / RFU ZSCAN30 (11745921_a_at) / Fold change /veh ZSCAN30 (11745921_a_at) / RFU CMKLR1 (11741424_a_at) / Fold change /veh CMKLR1 (11741424_a_at) / RFU LOC101060620 /// MAPK8IP1 (11723275_at) / Fold change /veh LOC101060620 /// MAPK8IP1 (11723275_at) / RFU SPTSSB (11747773_x_at) / Fold change /veh SPTSSB (11747773_x_at) / RFU PRSS12 (11739890_at) / Fold change /veh PRSS12 (11739890_at) / RFU BIN1 (11741810_x_at) / Fold change /veh BIN1 (11741810_x_at) / RFU WNT11 (11732464_a_at) / Fold change /veh WNT11 (11732464_a_at) / RFU C10orf10 (11716521_a_at) / Fold change /veh C10orf10 (11716521_a_at) / RFU C5orf56 (11738089_at) / Fold change /veh C5orf56 (11738089_at) / RFU CYB561 (11721691_x_at) / Fold change /veh CYB561 (11721691_x_at) / RFU ANKRD19P (11752326_a_at) / Fold change /veh ANKRD19P (11752326_a_at) / RFU OR2T12 /// OR2T33 /// OR2T8 (11738714_s_at) / Fold change /veh OR2T12 /// OR2T33 /// OR2T8 (11738714_s_at) / RFU VCAN (11748164_a_at) / Fold change /veh VCAN (11748164_a_at) / RFU JSRP1 (11732532_at) / Fold change /veh JSRP1 (11732532_at) / RFU KRTAP10-11 (11738290_x_at) / Fold change /veh KRTAP10-11 (11738290_x_at) / RFU MYO3A (11730013_a_at) / Fold change /veh MYO3A (11730013_a_at) / RFU EBF3 (11725865_a_at) / Fold change /veh EBF3 (11725865_a_at) / RFU CAMK2N1 (11719241_x_at) / Fold change /veh CAMK2N1 (11719241_x_at) / RFU C5orf56 (11738088_a_at) / Fold change /veh C5orf56 (11738088_a_at) / RFU OLFML3 (11715873_a_at) / Fold change /veh OLFML3 (11715873_a_at) / RFU LOC100653217 /// NTM (11731650_a_at) / Fold change /veh LOC100653217 /// NTM (11731650_a_at) / RFU MAPK11 (11762145_a_at) / Fold change /veh MAPK11 (11762145_a_at) / RFU FIZ1 (11724087_x_at) / Fold change /veh FIZ1 (11724087_x_at) / RFU OASL (11726364_x_at) / Fold change /veh OASL (11726364_x_at) / RFU SOX15 (11748057_x_at) / Fold change /veh SOX15 (11748057_x_at) / RFU CD79A (11719716_a_at) / Fold change /veh CD79A (11719716_a_at) / RFU HIST1H1D (11736915_at) / Fold change /veh HIST1H1D (11736915_at) / RFU CASKIN2 (11723855_a_at) / Fold change /veh CASKIN2 (11723855_a_at) / RFU LOC730098 (11760151_x_at) / Fold change /veh LOC730098 (11760151_x_at) / RFU OR4N2 (11742367_at) / Fold change /veh OR4N2 (11742367_at) / RFU PRRT2 (11749266_a_at) / Fold change /veh PRRT2 (11749266_a_at) / RFU SNX32 (11753110_a_at) / Fold change /veh SNX32 (11753110_a_at) / RFU CDHR5 (11726645_a_at) / Fold change /veh CDHR5 (11726645_a_at) / RFU RCAN1 (11760418_a_at) / Fold change /veh RCAN1 (11760418_a_at) / RFU FAM167A (11723789_a_at) / Fold change /veh FAM167A (11723789_a_at) / RFU FAM26E (11764081_at) / Fold change /veh FAM26E (11764081_at) / RFU ISYNA1 (11749810_s_at) / Fold change /veh ISYNA1 (11749810_s_at) / RFU ACY1 (11761880_at) / Fold change /veh ACY1 (11761880_at) / RFU 11764098_at / Fold change /veh 11764098_at / RFU SAMD14 (11745864_x_at) / Fold change /veh SAMD14 (11745864_x_at) / RFU NPB (11741838_a_at) / Fold change /veh NPB (11741838_a_at) / RFU TMPRSS6 (11731388_a_at) / Fold change /veh TMPRSS6 (11731388_a_at) / RFU KRTAP10-2 (11738614_at) / Fold change /veh KRTAP10-2 (11738614_at) / RFU ARHGAP8 /// PRR5-ARHGAP8 (11727945_x_at) / Fold change /veh ARHGAP8 /// PRR5-ARHGAP8 (11727945_x_at) / RFU KRTAP5-7 /// NADSYN1 (11734609_at) / Fold change /veh KRTAP5-7 /// NADSYN1 (11734609_at) / RFU RASL12 (11751679_a_at) / Fold change /veh RASL12 (11751679_a_at) / RFU CDKN2B (11736163_a_at) / Fold change /veh CDKN2B (11736163_a_at) / RFU PRF1 (11729649_at) / Fold change /veh PRF1 (11729649_at) / RFU, ZNF638 /// ZNF638-IT1 / Fold change vs veh, ZNF638 /// ZNF638-IT1 / RFU, PANK3 / Fold change vs veh, PANK3 / RFU, SH3YL1 / Fold change vs veh, SH3YL1 / RFU, ZEB2 / Fold change vs veh, ZEB2 / RFU, NRIP1 / Fold change vs veh, NRIP1 / RFU, PTTG1IP / Fold change vs veh, PTTG1IP / RFU, CAPN2 / Fold change vs veh, CAPN2 / RFU, MED14 / Fold change vs veh, MED14 / RFU, SNORA58 / Fold change vs veh, SNORA58 / RFU, C1orf63 / Fold change vs veh, C1orf63 / RFU, LRRFIP1 / Fold change vs veh, LRRFIP1 / RFU, NDUFAF7 / Fold change vs veh, NDUFAF7 / RFU, SLC12A2 / Fold change vs veh, SLC12A2 / RFU, IBTK / Fold change vs veh, IBTK / RFU, ESF1 / Fold change vs veh, ESF1 / Fold change vs veh, TMEM50B / RFU, TAOK1 / Fold change vs veh, TAOK1 / RFU, ACBD3 / Fold change vs veh, ACBD3 / RFU, TMA16 / Fold change vs veh, TMA16 / RFU, RWDD3 / Fold change vs veh, RWDD3 / RFU, BCAT1 / Fold change vs veh, BCAT1 / RFU, EDEM3 / Fold change vs veh, EDEM3 / RFU, TMEM33 / Fold change vs veh, TMEM33 / RFU, WDR75 / Fold change vs veh, WDR75 / RFU, AHCTF1 / Fold change vs veh, AHCTF1 / RFU, TFRC / Fold change vs veh, TFRC / RFU, ZDHHC17 / Fold change vs veh, ZDHHC17 / RFU, NOM1 / Fold change vs veh, NOM1 / RFU, ARL8B / Fold change vs veh, ARL8B / RFU, ZBTB11 / Fold change vs veh, ZBTB11 / RFU, TAMM41 / Fold change vs veh, TAMM41 / RFU, KIAA1704 /// LOC100996395 / Fold change vs veh, KIAA1704 /// LOC100996395 / RFU, ING1 / Fold change vs veh, ING1 / RFU, TRMT61B / Fold change vs veh, TRMT61B / RFU, FUBP3 / Fold change vs veh, FUBP3 / RFU, TP53 / Fold change vs veh, TP53 / RFU, TNKS2 / Fold change vs veh, TNKS2 / RFU, ZFP14 / Fold change vs veh, ZFP14 / RFU, ACTR2 / Fold change vs veh, ACTR2 / RFU, PPP3R1 / Fold change vs veh, PPP3R1 / RFU, PIK3R1 / Fold change vs veh, PIK3R1 / RFU, HNRNPA1 / Fold change vs veh, HNRNPA1 / RFU, RNF170 / Fold change vs veh, RNF170 / RFU, ZNF28 / Fold change vs veh, ZNF28 / RFU, RNGTT / Fold change vs veh, RNGTT / RFU, OGT / Fold change vs veh, OGT / RFU, BRD1 / Fold change vs veh, BRD1 / RFU, MARS / Fold change vs veh, MARS / RFU, ZNF655 / Fold change vs veh, ZNF655 / RFU, FAHD1 / Fold change vs veh, FAHD1 / RFU, BDP1 / Fold change vs veh, BDP1 / RFU, LRRCC1 / Fold change vs veh, LRRCC1 / RFU, ARID1A / Fold change vs veh, ARID1A / RFU, ZNF146 / Fold change vs veh, ZNF146 / RFU, ZNF330 / Fold change vs veh, ZNF330 / RFU, GPN3 / Fold change vs veh, GPN3 / RFU, C9orf123 / Fold change vs veh, C9orf123 / RFU, N4BP2L2 / Fold change vs veh, N4BP2L2 / RFU, ARFIP1 / Fold change vs veh, ARFIP1 / RFU, FAM179B / Fold change vs veh, FAM179B / RFU, BCL10 / Fold change vs veh, BCL10 / RFU, UHRF1BP1L / Fold change vs veh, UHRF1BP1L / RFU, BET1 / Fold change vs veh, BET1 / RFU, CNOT2 / Fold change vs veh, CNOT2 / RFU, ZNF268 / Fold change vs veh, ZNF268 / Fold change vs veh, ZNF507 / RFU, DGCR2 / Fold change vs veh, DGCR2 / RFU, WDSUB1 / Fold change vs veh, WDSUB1 / Fold change vs veh, HSP90B1 /// MIR3652 / RFU, ADSS / Fold change vs veh, ADSS / RFU, GK / Fold change vs veh, GK / RFU, ZNF148 / Fold change vs veh, ZNF148 / RFU, TAF9 / Fold change vs veh, TAF9 / RFU, SLC1A5 / Fold change vs veh, SLC1A5 / RFU, SLMO2 / Fold change vs veh, SLMO2 / RFU, ABCC4 / Fold change vs veh, ABCC4 / RFU, LOC101060439 /// RAP1B / Fold change vs veh, LOC101060439 /// RAP1B / RFU, RFX7 / Fold change vs veh, RFX7 / RFU, GTPBP10 / Fold change vs veh, GTPBP10 / RFU, CNEP1R1 / Fold change vs veh, CNEP1R1 / RFU, BIVM-ERCC5 /// ERCC5 / Fold change vs veh, BIVM-ERCC5 /// ERCC5 / RFU, ILF3 / Fold change vs veh, ILF3 / RFU 11762660_at / Fold change /veh 11762660_at / RFU VCAN (11757783_s_at) / Fold change /veh VCAN (11757783_s_at) / RFU DDX43 (11728927_at) / Fold change /veh DDX43 (11728927_at) / RFU KRT8 (11758188_x_at) / Fold change /veh KRT8 (11758188_x_at) / RFU NKD1 (11759106_at) / Fold change /veh NKD1 (11759106_at) / RFU SRD5A1 (11742802_a_at) / Fold change /veh SRD5A1 (11742802_a_at) / RFU TPSAB1 /// TPSB2 (11721975_s_at) / Fold change /veh TPSAB1 /// TPSB2 (11721975_s_at) / RFU GSTM3 (11746129_a_at) / Fold change /veh GSTM3 (11746129_a_at) / RFU IL23R (11737362_x_at) / Fold change /veh IL23R (11737362_x_at) / RFU TMEM51 (11727254_a_at) / Fold change /veh TMEM51 (11727254_a_at) / RFU PIWIL2 (11732686_x_at) / Fold change /veh PIWIL2 (11732686_x_at) / RFU ORM1 (11744905_x_at) / Fold change /veh ORM1 (11744905_x_at) / RFU CCDC152 (11743942_at) / Fold change /veh CCDC152 (11743942_at) / RFU ECM1 (11717891_a_at) / Fold change /veh ECM1 (11717891_a_at) / RFU IL23R (11748794_a_at) / Fold change /veh IL23R (11748794_a_at) / RFU TNFAIP8L3 (11732012_x_at) / Fold change /veh TNFAIP8L3 (11732012_x_at) / RFU MBOAT4 (11741988_at) / Fold change /veh MBOAT4 (11741988_at) / RFU 11764193_at / Fold change /veh 11764193_at / RFU TMEM53 (11763286_at) / Fold change /veh TMEM53 (11763286_at) / RFU MAGEB2 (11727129_at) / Fold change /veh MAGEB2 (11727129_at) / RFU TMEM200A (11744735_a_at) / Fold change /veh TMEM200A (11744735_a_at) / RFU CCDC152 (11751479_a_at) / Fold change /veh CCDC152 (11751479_a_at) / RFU FAM211A (11726209_a_at) / Fold change /veh FAM211A (11726209_a_at) / RFU RGS16 (11746705_a_at) / Fold change /veh RGS16 (11746705_a_at) / RFU VCAN (11755009_s_at) / Fold change /veh VCAN (11755009_s_at) / RFU RHOB (11743442_s_at) / Fold change /veh RHOB (11743442_s_at) / RFU RGS16 (11720943_a_at) / Fold change /veh RGS16 (11720943_a_at) / RFU RGS16 (11720944_at) / Fold change /veh RGS16 (11720944_at) / RFU, VPS4B / Fold change vs veh, VPS4B / RFU, CREB1 / Fold change vs veh, CREB1 / RFU, DNAJC13 / Fold change vs veh, DNAJC13 / RFU, GNAQ / Fold change vs veh, GNAQ / RFU, CDK5R1 / Fold change vs veh, CDK5R1 / RFU, ZRANB3 / Fold change vs veh, ZRANB3 / RFU, CUL4A / Fold change vs veh, CUL4A / RFU, CCNY / Fold change vs veh, CCNY / RFU, UFL1 / Fold change vs veh, UFL1 / RFU, COG3 / Fold change vs veh, COG3 / RFU, DIAPH2 / Fold change vs veh, DIAPH2 / RFU, SKA2 / Fold change vs veh, SKA2 / RFU, AFF3 / Fold change vs veh, AFF3 / RFU, LMF1 / Fold change vs veh, LMF1 / RFU, IPO11 / Fold change vs veh, IPO11 / RFU, DFFB / Fold change vs veh, DFFB / RFU, FOXP1 / Fold change vs veh, FOXP1 / RFU, CARD8 / Fold change vs veh, CARD8 / RFU, STRN3 / Fold change vs veh, STRN3 / RFU, ADK / Fold change vs veh, ADK / RFU, RASSF2 / Fold change vs veh, RASSF2 / RFU, WIPF1 / Fold change vs veh, WIPF1 / RFU, LARP1B / Fold change vs veh, LARP1B / RFU, RASA1 / Fold change vs veh, RASA1 / RFU, RB1 / Fold change vs veh, RB1 / RFU, PPFIA1 / Fold change vs veh, PPFIA1 / RFU, MAT2A / Fold change vs veh, MAT2A / RFU, CCT5 / Fold change vs veh, CCT5 / RFU, WDR92 / Fold change vs veh, WDR92 / RFU, CUX1 / Fold change vs veh, CUX1 / RFU, TTC7A / Fold change vs veh, TTC7A / RFU, TMEM135 / Fold change vs veh, TMEM135 / RFU, DEPTOR / Fold change vs veh, DEPTOR / RFU, CPM / Fold change vs veh, CPM / RFU, DNAJB6 / Fold change vs veh, DNAJB6 / RFU, CACNA2D3 / Fold change vs veh, CACNA2D3 / RFU, DTX4 / Fold change vs veh, DTX4 / RFU, TFCP2 / Fold change vs veh, TFCP2 / RFU, GMCL1 /// GMCL1P1 / Fold change vs veh, GMCL1 /// GMCL1P1 / RFU, AEBP2 / Fold change vs veh, AEBP2 / RFU, SNHG1 /// SNORD22 /// SNORD25 /// SNORD26 /// SNORD27 /// SNORD28 /// SNORD29 /// SNORD31 / Fold change vs veh, SNHG1 /// SNORD22 /// SNORD25 /// SNORD26 /// SNORD27 /// SNORD28 /// SNORD29 /// SNORD31 / Fold change (Aza/veh), C12orf56 (ProbeSet 11735607_a_at) / Fold change (ACY-1035/veh), C12orf56 (ProbeSet 11735607_a_at) / Fold change (Aza/veh), FGFR1OP (ProbeSet 11751329_s_at) / Fold change (ACY-1035/veh), FGFR1OP (ProbeSet 11751329_s_at) / Fold change (Aza/veh), VPS36 (ProbeSet 11739960_a_at) / Fold change (ACY-1035/veh), VPS36 (ProbeSet 11739960_a_at) / RFU SYPL1 (11715823_x_at) / Fold change /veh SYPL1 (11715823_x_at) / RFU IGFBP7 (11715501_s_at) / Fold change /veh IGFBP7 (11715501_s_at) / RFU REEP3 (11722064_at) / Fold change /veh REEP3 (11722064_at) / RFU IGLL1 (11728026_x_at) / Fold change /veh IGLL1 (11728026_x_at): dose or concentration left out as unconfirmed
Details: MV-4-11 cells, 48 hours

With `Nc1ncn([C@@H]2O[C@H](CO)[C@@H](O)[C@H]2O)c(=O)n1` [azacitidine] the “RFU KRT8 (11758188_x_at)” value was 23.78 RFU.
